This passage reports MIC results from patent US7141570B2, “N-aryl-2-oxazolidinone-5-carboxamides and their derivatives” (Pharmacia & Upjohn Company, priority 2002, dated 2006).

Converted amounts (≈) assume the structure as drawn. Some results are limits rather than exact numbers.

Assay in all cases: MIC, agar dilution
Type in all cases: cell-based
On the technique in general: In agar dilution the substance is mixed into plates at graded concentrations.

Test [1] relates to S. epidermidis (SEPI 30593). The note with it: Staphylococcus epidermidis, S. epidermidis 30593, overnight at 35° C. Here is the method:
(§1) The in vitro MICs of test compounds were determined by a standard agar dilution method. A stock drug solution of each analog was prepared in the preferred solvent, usually DMSO:H2O (1:3). Serial 2-fold dilutions of each sample are made using 1.0 ml aliquots of sterile distilled water. To each 1.0 ml aliquot of drug was added 9 ml of molten Mueller Hinton agar medium. The drug-supplemented agar was mixed, poured into 15×100 mm petri dishes, and allowed to solidify and dry prior to inoculation.
(§2) Vials of each of the test organisms are maintained frozen in the vapor phase of a liquid nitrogen freezer. Test cultures are grown overnight at 35° C. on the medium appropriate for the organism. Colonies are harvested with a sterile swab, and cell suspensions are prepared in Trypticase Soy broth (TSB) to equal the turbidity of a 0.5 McFarland standard. A 1:20 dilution of each suspension was made in TSB. The plates containing the drug supplemented agar are inoculated with a 0.001 ml drop of the cell suspension using a Steers replicator, yielding approximately 10^4 to 10^5 cells per spot. The plates are incubated overnight at 35° C.
(§3) Following incubation the Minimum Inhibitory Concentration (MIC μg/ml), the lowest concentration of drug that inhibits visible growth of the organism, was read and recorded.

The test system of test [2] is S. aureus (SAUR 9213). The note with it: Staphylococcus aureus, S. aureus 9213, overnight at 35° C. Here is the method:
as §1, §2, §3

The subject of test [3] is E. Faecalis (EFAE 9217). The note with it: Enterococcus faecalis, E. Faecalis 9217, overnight at 35° C. Here is the method:
as §1, §2, §3

For test [4], the system named is S. aureus (SAUR 31583). The note with it: Staphylococcus aureus, S. aureus 31583, overnight at 35° C. The protocol:
as §1, §2, §3

In test [5] the test system is H. influenzae (HINF 31810). The note with it: Haemophilus influenzae, H. influenzae 31810, overnight at 35° C. The protocol:
as §1, §2, §3

Test [6] relates to S. pneumonia (SPNE 9912). The note with it: S. pneumonia 9912, overnight at 35° C. The protocol: as §1, §2, §3
The test system of test [7] is H. influenzae (HINF 30063). The note with it: Haemophilus influenzae, H. influenzae 30063, overnight at 35° C. Here is the method: as §1, §2, §3
For test [8], the system named is E. Faecium (EFAE 12712). The note with it: Enterococcus faecium, E. Faecium 12712, overnight at 35° C. Here is the method: as §1, §2, §3
Test [9] relates to M. catarrhalis (MCAT 30607). The note with it: Moraxella catarrhalis, M. catarrhalis 30607, overnight at 35° C. The protocol: as §1, §2, §3
Test [10] deals with S. pyogenes (SPYO 152). The note with it: Streptococcus pyogenes, S. pyogenes 152, overnight at 35° C. The protocol:
as §1, §2, §3

In the case of `CCC(=S)NC[C@H]1CN(c2ccc(N3CCN(C(=O)COc4ccc(CN(C)C)cc4)CC3)c(F)c2)C(=O)O1` [Compound 13], the MIC in test [1] was 1 µg/mL (≈ 1.79 µM); in test [2], 8 µg/mL (≈ 14.3 µM); in test [3], 1 µg/mL (≈ 1.79 µM); in test [4], 16 µg/mL (≈ 28.7 µM); in test [5] it was 16 µg/mL (≈ 28.7 µM); in test [6], 0.125 µg/mL (≈ 0.224 µM). Moreover, the MIC in [7] stood at 16 µg/mL (≈ 28.7 µM); in [8], 2 µg/mL (≈ 3.59 µM); in [9] it was 4 µg/mL (≈ 7.17 µM); in test [10], 0.25 µg/mL (≈ 0.448 µM).
As for `O=C(COc1ccc(CN2CCOCC2)cc1)N1CCN(c2ccc(N3C[C@H](CNC(=S)C4CC4)OC3=O)cc2F)CC1` [Compound 18], the MIC is 1 µg/mL (≈ 1.63 µM) in test [1]; 4 µg/mL (≈ 6.54 µM) in [2]; 1 µg/mL (≈ 1.63 µM) in test [3]; 16 µg/mL (≈ 26.2 µM) in [4]; 32 µg/mL (≈ 52.3 µM) in test [5]; 0.25 µg/mL (≈ 0.409 µM) in test [6]. For the same compound, the MIC in test [7] was found to be 64 µg/mL (≈ 105 µM); in [8], 2 µg/mL (≈ 3.27 µM); in test [9], 2 µg/mL (≈ 3.27 µM); in test [10], 0.25 µg/mL (≈ 0.409 µM).
For the compound `CC(=O)NC[C@H]1CN(c2ccc(N3CCN(C(=O)COc4ccc(CN5CCOCC5)cc4)CC3)c(F)c2)C(=O)O1` [Compound 19], the MIC was 8 µg/mL (≈ 14 µM) in test [1]; 16 µg/mL (≈ 28.1 µM) in test [2]; 4 µg/mL (≈ 7.02 µM) in [3]; over 64 µg/mL in test [4]; 64 µg/mL (≈ 112 µM) in [5]; 1 µg/mL (≈ 1.76 µM) in test [6]. The MIC in [7] is over 64 µg/mL; in [8], 8 µg/mL (≈ 14 µM); in test [9] it was 64 µg/mL (≈ 112 µM); in test [10], 1 µg/mL (≈ 1.76 µM).
With `CCN(CC)Cc1ccc(OCC(=O)N2CCN(c3ccc(N4C[C@H](CNC(C)=O)OC4=O)cc3F)CC2)cc1` [Compound 8], the MIC in [1] is 8 µg/mL (≈ 14.4 µM); in test [2], 32 µg/mL (≈ 57.6 µM); in test [3] it was 32 µg/mL (≈ 57.6 µM); in test [4] it was over 64 µg/mL; in test [5], over 64 µg/mL; in test [6], 2 µg/mL (≈ 3.6 µM). Further, the MIC is over 64 µg/mL in [7], 32 µg/mL (≈ 57.6 µM) in [8], 32 µg/mL (≈ 57.6 µM) in test [9] and 2 µg/mL (≈ 3.6 µM) in test [10].
In the case of `CC(=O)NC[C@H]1CN(c2ccc(N3CCN(C(=O)COc4ccc(CN(C)C)cc4)CC3)c(F)c2)C(=O)O1` [Compound 14], the MIC in test [1] was 8 µg/mL (≈ 15.2 µM); in test [2], 16 µg/mL (≈ 30.3 µM); in test [3], 8 µg/mL (≈ 15.2 µM); in [4], over 64 µg/mL; in [5], 32 µg/mL (≈ 60.7 µM); in test [6], 0.5 µg/mL (≈ 0.948 µM). In addition, the MIC was found to be 64 µg/mL (≈ 121 µM) in [7], 8 µg/mL (≈ 15.2 µM) in test [8], 32 µg/mL (≈ 60.7 µM) in test [9] and 0.5 µg/mL (≈ 0.948 µM) in [10].
Consider `CCC(=S)NC[C@H]1CN(c2ccc(N3CCN(C(=O)COc4ccc(CN(CC)CC)cc4)CC3)c(F)c2)C(=O)O1` [Compound 9], for which the MIC is 2 µg/mL (≈ 3.41 µM) in test [1]; 4 µg/mL (≈ 6.83 µM) in test [2]; 2 µg/mL (≈ 3.41 µM) in test [3]; 32 µg/mL (≈ 54.6 µM) in test [4]; 32 µg/mL (≈ 54.6 µM) in test [5]; 0.25 µg/mL (≈ 0.427 µM) in test [6]. For the same compound, the MIC in [7] turned out to be 32 µg/mL (≈ 54.6 µM); in [8], 2 µg/mL (≈ 3.41 µM); in test [9], 4 µg/mL (≈ 6.83 µM); in test [10] it was 0.25 µg/mL (≈ 0.427 µM).
For the compound `CN(C)Cc1ccc(OCC(=O)N2CCN(c3ccc(N4C[C@H](CNC(=S)C5CC5)OC4=O)cc3F)CC2)cc1` [Compound 2], the MIC amounted to 1 µg/mL (≈ 1.76 µM) in test [1]; 2 µg/mL (≈ 3.51 µM) in [2]; 1 µg/mL (≈ 1.76 µM) in test [3]; 4 µg/mL (≈ 7.02 µM) in test [4]; 8 µg/mL (≈ 14 µM) in test [5]; 0.125 µg/mL (≈ 0.219 µM) in test [6]. Also, the MIC is 16 µg/mL (≈ 28.1 µM) in test [7], 1 µg/mL (≈ 1.76 µM) in test [8], 2 µg/mL (≈ 3.51 µM) in test [9] and 0.125 µg/mL (≈ 0.219 µM) in test [10].
